Paper PMC12198282, “Application of a high-density microelectrode array assay using a 3D human iPSC-derived brain microphysiological system model for in vitro neurotoxicity screening of environmental compounds” (Archives of Toxicology, 2025)
Entries after “also recorded” stand apart in the source; their conditions may differ. Like-named read-outs stand apart in the source and are kept apart here.

Experiments:
2D rat cortical cultures = conditions: cited from earlier work; for AC50: rNFA mc5; for hitc CCTE_Shafer_MEA_dev_active_electrodes_number / hitc CCTE_Shafer_MEA_dev_burst_duration_mean / hitc CCTE_Shafer_MEA_dev_burst_rate / hitc CCTE_Shafer_MEA_dev_bursting_electrodes_number / hitc CCTE_Shafer_MEA_dev_correlation_coefficient_mean / hitc CCTE_Shafer_MEA_dev_firing_rate_mean / hitc CCTE_Shafer_MEA_dev_inter_network_spike_interval_mean / hitc CCTE_Shafer_MEA_dev_interburst_interval_mean / hitc CCTE_Shafer_MEA_dev_mutual_information_norm / hitc CCTE_Shafer_MEA_dev_network_spike_duration_std / hitc CCTE_Shafer_MEA_dev_network_spike_number / hitc CCTE_Shafer_MEA_dev_network_spike_peak / hitc CCTE_Shafer_MEA_dev_per_burst_interspike_interval / hitc CCTE_Shafer_MEA_dev_per_burst_spike_percent / hitc CCTE_Shafer_MEA_dev_per_network_spike_spike_number_mean / hitc CCTE_Shafer_MEA_dev_per_network_spike_spike_percent / hitc CCTE_Shafer_MEA_dev_spike_duration_mean: rNFA mc5 hit call; for Bioactivity in the rNFA (in words): ref Brown et al. [2016], Carstens et al. [2022], Frank et al. [2017b], Shafer et al. [2019], ToxCast invitrodb (v4.2); on hitc CCTE Shafer MEA dev active electrodes number: key: 1 (active); 0 (inactive); on hitc CCTE Shafer MEA dev burst duration mean: key: 1 (active); 0 (inactive); on hitc CCTE Shafer MEA dev burst rate: key: 1 (active); 0 (inactive); on hitc CCTE Shafer MEA dev bursting electrodes number: key: 1 (active); 0 (inactive); on hitc CCTE Shafer MEA dev correlation coefficient mean: key: 1 (active); 0 (inactive); on hitc CCTE Shafer MEA dev firing rate mean: key: 1 (active); 0 (inactive); on hitc CCTE Shafer MEA dev inter network spike interval mean: key: 1 (active); 0 (inactive); on hitc CCTE Shafer MEA dev interburst interval mean: key: 1 (active); 0 (inactive); on hitc CCTE Shafer MEA dev mutual information norm: key: 1 (active); 0 (inactive); on hitc CCTE Shafer MEA dev network spike duration std: key: 1 (active); 0 (inactive); on hitc CCTE Shafer MEA dev network spike number: key: 1 (active); 0 (inactive); on hitc CCTE Shafer MEA dev network spike peak: key: 1 (active); 0 (inactive); on hitc CCTE Shafer MEA dev per burst interspike interval: key: 1 (active); 0 (inactive); on hitc CCTE Shafer MEA dev per burst spike percent: key: 1 (active); 0 (inactive); on hitc CCTE Shafer MEA dev per network spike spike number mean: key: 1 (active); 0 (inactive); on hitc CCTE Shafer MEA dev per network spike spike percent: key: 1 (active); 0 (inactive); on hitc CCTE Shafer MEA dev spike duration mean: key: 1 (active); 0 (inactive)
BrainSpheres = assay: Cytotoxicity evaluation, resazurin assay (BrainSphere.Cyto); assay type: cell-based, human; conditions: for AC50: Homo sapiens, 312 h, read-out: ac50 BrainSphere.Cyto; on hitc BrainSphere.Cyto: key: 1 (active); 0 (inactive)
Procedure: For the resazurin assay, BrainSpheres were cultured for 7 weeks in non-treated 6-well plates under gyratory shaking. Subsequently, the cells were exposed in the same manner as the HD-MEA plates. This assay was used to determine cell viability after exposure for 13 days to the different compounds. After exposure, resazurin diluted in PBS was added directly to the 6-well plates to a final concentration of 0.1 mg/ml. The plates were then put in an incubator for 3 h at 37 °C, 5% CO2. Then, 100 µl of the media was collected and transferred in a 96-well plate for fluorescence analysis, which was done at ex:530 nm/em:590 nm in a multi-well fluorometric reader CytoFluor series 4000 (PerSeptive Biosystems, Inc).
Ten metrics were measured to evaluate changes in neural activity in the BrainSphere MEA assay (Table 3). Considering the complexity of the data which includes seven recording days for each single ROI in a well, an area under the curve (AUC) metric was used to reduce activity across time as described in previous publications (Brown et al. [2016]; Frank et al. [2017b]; Shafer et al. [2019]). […] For concentration–response modeling, the mean AUC values across all the BrainSpheres per well (technical replicates) was computed for each endpoint, such that each concentration included biological replicates from at least three separate wells on three separate plates, representing each individual experiment. The mean AUC values were used for concentration–response modeling using the R package tcplfit2 (version 0.1.6) (Sheffield et al. [2022]). Data were normalized as a percent of vehicle control wells by plate using the equation: resp.pc=rval-bval/bval×100 where resp.pc is the percent of control value, rval is the response value, and bval is the baseline value (defined as the mean of the vehicle control and the lowest tested concentration). […] The activity cutoff was defined as 3 times the median absolute deviation (bmad) of baseline values. A curve was defined as ‘active’ if the continuous hit call was ≥ 0.9. See Supplemental Table 1 for the bmad, activity cutoff threshold, SD, and benchmark response for each endpoint in the BrainSphere MEA. Potency was defined as the concentration at 50% maximal activity (AC50 log10 µM).

[1] = aenm bursting_electrodes_number
[2] = aenm correlation_coefficient_mean
[3] = aenm inter_network_spike_interval_mean
[4] = aenm network_spike_duration_std
[5] = aenm per_burst_interspike_interval
[6] = aenm per_network_spike_spike_number_mean
[7] = aenm per_network_spike_spike_percent

In the case of `C/C(=C/C=C/[C@@H](C)C(=O)O)[C@H]1CN[C@H](C(=O)O)[C@H]1CC(=O)O` [Domoic acid], the AC50 (2D rat cortical cultures; aenm active_electrodes_number, read-out: ac50 CCTE_Shafer_MEA_dev_active_electrodes_number) is listed as 970 nM, the AC50 (2D rat cortical cultures; aenm burst_duration_mean, read-out: ac50 CCTE_Shafer_MEA_dev_burst_duration_mean) is listed as 992 nM and the AC50 (2D rat cortical cultures; aenm burst_rate, read-out: ac50 CCTE_Shafer_MEA_dev_burst_rate) is listed as 131 nM. For the same compound, the AC50 (2D rat cortical cultures; aenm bursting_electrodes_number, read-out: ac50 CCTE_Shafer_MEA_dev_bursting_electrodes_number) was 1280 nM, the AC50 (2D rat cortical cultures; aenm correlation_coefficient_mean, read-out: ac50 CCTE_Shafer_MEA_dev_correlation_coefficient_mean) was 1560 nM and the AC50 (2D rat cortical cultures; aenm firing_rate_mean, read-out: ac50 CCTE_Shafer_MEA_dev_firing_rate_mean) was 68 nM. The AC50 (2D rat cortical cultures; aenm inter_network_spike_interval_mean, read-out: ac50 CCTE_Shafer_MEA_dev_inter_network_spike_interval_mean) was 160 nM, the AC50 (2D rat cortical cultures; aenm interburst_interval_mean, read-out: ac50 CCTE_Shafer_MEA_dev_interburst_interval_mean) was 32 nM and the AC50 (2D rat cortical cultures; aenm mutual_information_norm, read-out: ac50 CCTE_Shafer_MEA_dev_mutual_information_norm) was 51 nM. For the same compound, the AC50 (2D rat cortical cultures; aenm network_spike_duration_std, read-out: ac50 CCTE_Shafer_MEA_dev_network_spike_duration_std) was 259 nM, the AC50 (2D rat cortical cultures; aenm network_spike_number, read-out: ac50 CCTE_Shafer_MEA_dev_network_spike_number) was 22 nM and the AC50 (2D rat cortical cultures; aenm network_spike_peak, read-out: ac50 CCTE_Shafer_MEA_dev_network_spike_peak) was 1830 nM. The AC50 (2D rat cortical cultures; aenm per_burst_interspike_interval, read-out: ac50 CCTE_Shafer_MEA_dev_per_burst_interspike_interval) was 1330 nM, the AC50 (2D rat cortical cultures; aenm per_burst_spike_percent, read-out: ac50 CCTE_Shafer_MEA_dev_per_burst_spike_percent) was 2060 nM and the AC50 (2D rat cortical cultures; aenm per_network_spike_spike_number_mean, read-out: ac50 CCTE_Shafer_MEA_dev_per_network_spike_spike_number_mean) was 1050 nM. For the same compound, the AC50 (2D rat cortical cultures; aenm per_network_spike_spike_percent, read-out: ac50 CCTE_Shafer_MEA_dev_per_network_spike_spike_percent) was 2340 nM, the AC50 (2D rat cortical cultures; aenm spike_duration_mean, read-out: ac50 CCTE_Shafer_MEA_dev_spike_duration_mean) was 1120 nM and the “hitc CCTE_Shafer_MEA_dev_active_electrodes_number” value (2D rat cortical cultures; aenm active_electrodes_number) was 1. For the same compound, the “hitc CCTE_Shafer_MEA_dev_burst_duration_mean” value (2D rat cortical cultures; aenm burst_duration_mean) was 1, the “hitc CCTE_Shafer_MEA_dev_burst_rate” value (2D rat cortical cultures; aenm burst_rate) was 1 and the “hitc CCTE_Shafer_MEA_dev_bursting_electrodes_number” value (2D rat cortical cultures; [1]) was 1. The “hitc CCTE_Shafer_MEA_dev_correlation_coefficient_mean” value (2D rat cortical cultures; [2]) was 1, the “hitc CCTE_Shafer_MEA_dev_firing_rate_mean” value (2D rat cortical cultures; aenm firing_rate_mean) was 1 and the “hitc CCTE_Shafer_MEA_dev_inter_network_spike_interval_mean” value (2D rat cortical cultures; [3]) was 1. For the same compound, the “hitc CCTE_Shafer_MEA_dev_interburst_interval_mean” value (2D rat cortical cultures; aenm interburst_interval_mean) was 1, the “hitc CCTE_Shafer_MEA_dev_mutual_information_norm” value (2D rat cortical cultures; aenm mutual_information_norm) was 1 and the “hitc CCTE_Shafer_MEA_dev_network_spike_duration_std” value (2D rat cortical cultures; [4]) was 1. For the same compound, the “hitc CCTE_Shafer_MEA_dev_network_spike_number” value (2D rat cortical cultures; aenm network_spike_number) was 1, the “hitc CCTE_Shafer_MEA_dev_network_spike_peak” value (2D rat cortical cultures; aenm network_spike_peak) was 1 and the “hitc CCTE_Shafer_MEA_dev_per_burst_interspike_interval” value (2D rat cortical cultures; [5]) was 1. The “hitc CCTE_Shafer_MEA_dev_per_burst_spike_percent” value (2D rat cortical cultures; aenm per_burst_spike_percent) was 1, the “hitc CCTE_Shafer_MEA_dev_per_network_spike_spike_number_mean” value (2D rat cortical cultures; [6]) was 1 and the “hitc CCTE_Shafer_MEA_dev_per_network_spike_spike_percent” value (2D rat cortical cultures; [7]) was 1. For the same compound, the “hitc CCTE_Shafer_MEA_dev_spike_duration_mean” value (2D rat cortical cultures; aenm spike_duration_mean) was 1, the “Bioactivity in the rNFA (in words)” value (2D rat cortical cultures) was “alter multiple parameters of network formation” and the AC50 (BrainSpheres) was 5000 nM. For the same compound, the “Cytotoxicity / cell viability in the BrainSphere resazurin assay (in words)” value (BrainSpheres; day 13 of exposure) was “magnitude of the response was not sufficient to indicate a positive response”, the Cytotoxicity hit (BrainSpheres; resazurin, after 13 days of exposure) was 0 and the “hitc BrainSphere.Cyto” value (BrainSpheres; resazurin, day 13, tcplfit2) was 0. The “BMD BrainSphere.Cyto” value (BrainSpheres; tcplfit2 BMD at benchmark response (1.349*SD of baseline controls)) was 4.5 µM and the “ACC BrainSphere.Cyto” value (BrainSpheres; tcplfit2 output ACC, activity cutoff in Supplemental Table 1) was 5.4 µM.
For `CC(=O)Nc1ccc(O)cc1` [Acetaminophen], the “hitc CCTE_Shafer_MEA_dev_active_electrodes_number” value (2D rat cortical cultures; aenm active_electrodes_number) is given as 0, the “hitc CCTE_Shafer_MEA_dev_burst_duration_mean” value (2D rat cortical cultures; aenm burst_duration_mean) is given as 0 and the “hitc CCTE_Shafer_MEA_dev_burst_rate” value (2D rat cortical cultures; aenm burst_rate) is given as 0. For the same compound, the “hitc CCTE_Shafer_MEA_dev_bursting_electrodes_number” value (2D rat cortical cultures; [1]) was 0, the “hitc CCTE_Shafer_MEA_dev_correlation_coefficient_mean” value (2D rat cortical cultures; [2]) was 0 and the “hitc CCTE_Shafer_MEA_dev_firing_rate_mean” value (2D rat cortical cultures; aenm firing_rate_mean) was 0. The “hitc CCTE_Shafer_MEA_dev_inter_network_spike_interval_mean” value (2D rat cortical cultures; [3]) was 0, the “hitc CCTE_Shafer_MEA_dev_interburst_interval_mean” value (2D rat cortical cultures; aenm interburst_interval_mean) was 0 and the “hitc CCTE_Shafer_MEA_dev_mutual_information_norm” value (2D rat cortical cultures; aenm mutual_information_norm) was 0. The “hitc CCTE_Shafer_MEA_dev_network_spike_duration_std” value (2D rat cortical cultures; [4]) was 0, the “hitc CCTE_Shafer_MEA_dev_network_spike_number” value (2D rat cortical cultures; aenm network_spike_number) was 0 and the “hitc CCTE_Shafer_MEA_dev_network_spike_peak” value (2D rat cortical cultures; aenm network_spike_peak) was 0. The “hitc CCTE_Shafer_MEA_dev_per_burst_interspike_interval” value (2D rat cortical cultures; [5]) was 0, the “hitc CCTE_Shafer_MEA_dev_per_burst_spike_percent” value (2D rat cortical cultures; aenm per_burst_spike_percent) was 0 and the “hitc CCTE_Shafer_MEA_dev_per_network_spike_spike_number_mean” value (2D rat cortical cultures; [6]) was 0. For the same compound, the “hitc CCTE_Shafer_MEA_dev_per_network_spike_spike_percent” value (2D rat cortical cultures; [7]) was 0, the “hitc CCTE_Shafer_MEA_dev_spike_duration_mean” value (2D rat cortical cultures; aenm spike_duration_mean) was 0 and the “Bioactivity in the rNFA (in words)” value (2D rat cortical cultures) was “inactivity across all metrics in both models”. For the same compound, the “Bioactivity in the rNFA (in words)” value (2D rat cortical cultures; listed as acetaminophen) was “inactive in both assays; also recorded: did not”, the AC50 (BrainSpheres) was 45000 nM and the “BMD BrainSphere.Cyto” value (BrainSpheres; human) was 174 µM. The Cytotoxicity hit (BrainSpheres; human) was 0 and the “hitc BrainSphere.Cyto” value (BrainSpheres; human) was 0.
